Data set [1] concerns pine plants. Kind of data set: Cultivation trials with pine plants in peat using various nitrogen sources. The note with it: 59 days; for growth of the pine plants (mean dry weight), ranking of the nitrogen sources: greenhouse 20° C., nitrogen 1, 3 and 10 mM, FIG. 1; for change in growth of the pine plants on charge increase from three to ten millimoles per litre: nitrogen 3 mM to 10 mM. The class given is in vivo. On the procedure:
The cultivation trials presented below were carried out over a time period of 59 days in a greenhouse that was kept at a constant temperature of 20° C. Lighting was kept at 150 micromole light per square meter (m^2) and second (s). The lamps used to this end were Philips Powertone SON-T+400 Watt. 720 pine seeds were sown in pots that contained 0.5 litre unfertilized (but weakly […] five seeds per pot. The pots were plastic pots that included typically four small holes in the bottom of the pot. […] Fertilizer was administered on Monday and Tuesday of each week and the seeds, and later the seedlings or shoots, were watered each Sunday. The nutrient mixture and the water were both brought a pH of 5.0 with hydrochloric acid. Both the nutrient mixture and the water were administered manually to each pot with the aid of so-called bird pipette having a capacity of one decilitre. […] Eight different nutrient mixtures were tested and the nitrogen for each nutrient mixture was charged in three different concentrations, namely concentrations of one millimole per litre (1 mM), three millimole per litre (3 mM) and ten millimole per litre (10 mM). Six pots, and therewith thirty plants, were used for each nutrient mixture and each concentration, giving a total of 144 pots. […] Further dilution was required to obtain respective concentrations of three millimole and one millimole. The remaining seven nutrient mixtures were obtained, by preparing a stock solution that coincides totally with the before described commercial product but with the exception that the nitrogen source in the form of 61.5% nitrogen in nitrate form and 38.5% nitrogen in ammonium form was excluded. […] Each nutrient mixture based on the latter two nitrogen sources were prepared and have been given the designation +(plus) in the following. The addition is that the stock solution has been charged with twice the conventional amount of both potassium and magnesium. As those skilled in this art will realise, this has been done because a significant increase in the amount of ammonium nitrogen at the cost of the amount of nitrate nitrogen may result in a potassium and magnesium deficiency from the nutrient aspect. It will be noted that with regard to the inventive fertilizer, i.e. the basic protein amino acid arginine that contains four nitrogen atoms, the concentration has been calculated on the basis of one nitrogen atom, which means that the actual addition of the acid calculated in grams per litre is comparatively low or very low. At the end of the cultivation trials, the thirty pine plans in each trial series were taken up and their dry weight determined in grams. […] The sign I stand for the standard error defined as the standard deviation (which is a well defined term to describe the spread between tests) divided by the square root of the number of samples, in this case thirty samples.

Data set [2] has as its system spruce plants. Kind of data set: Cultivation trials with spruce plants in peat using various nitrogen sources. It counts as in vivo. The note with it: 59 days. An excerpt: 720 spruce seeds were sown in peat at the same time as and in parallel with the above described trials. The trials carried out on spruce seeds and on spruce plants stemming from the seed were identical to the earlier described trials. […] The standard deviation is also shown in this case.

The conditions of data set [3]: for Retention % (adsorption or retention of the chemicals in the peat): 0.2 millimole chemical per gram peat, 5 millimolar solution, one hour at room temperature, mean of three tests, HPLC of liquid phase; for amount of supplied chemical found in the liquid (water) phase: same test as the retention, liquid phase above the peat.
Description: A given amount of peat of the same kind as that used in the cultivation trials and whose properties have been given above was dried in an oven at a temperature of 60° C. for 20 hours. […] Portions of this peat corresponding to 0.25 grams were inserted into nine test tubes. 5 ml water was delivered to each test tube, this water having been purified in filters from the company Millipore. The test tubes and their contents were then allowed to stand at room temperature for 20 hours, so that the peat would become wet through.
The aforesaid three chemicals, each in solid state, were weighed into three equal portions. Each portion was dissolved in 5 ml water that had been purified in the before described manner. The amount or weight of the substance was such as to obtain a substance concentration of 5 millimolar.
Each of the nine chemical solutions was delivered to a respective test tube that contained water-drenched peat. The amount of chemical added was 0.2 millimole per gram peat in all cases. Subsequent to supplying said liquid, each test tube was shaken by hand and thereafter allowed to stand at room temperature for one hour. The materials in the test tubes layered, such that the lowermost third contained a substantially clear liquid phase and the remainder of the tube contained liquid-drenched peat. A pipette was inserted into the test tube down to approximately midway of the liquid phase. About 1.5 millilitres of liquid was drawn off through the pipette and analysed with respect to its chemical content with the aid of HPLC-chromatography (HPLC=High Performance Liquid Chromatography).
As evident from the foregoing, three similar tests were carried out for each chemical.

Read-outs that look alike come from different tables or passages of the source.

Take `N=C(N)NCCC[C@H](N)C(=O)O` [Arginine, arginine]: the “growth of the pine plants (mean dry weight), ranking of the nitrogen sources” value in data set [1] is given as “best growth”. Besides, the “growth of the pine plants with increase in the nitrogen addition” value in data set [1] (nitrogen 1 to 3 to 10 mM) is “increased constantly with an increase in the nitrogen addition”. Also, the “growth of the spruce plants with increased nitrogen charges” value in data set [2] (nitrogen 1 to 3 to 10 mM) is “constantly increased growth”. Further, in data set [3], the “Retention % (adsorption or retention of the chemicals in the peat)” value (“Retention %” for short) is given as 89.1% and the “amount of supplied chemical found in the liquid (water) phase” value is around 11%. Further, the “Retention %” value in data set [3] (listed as arginine) is around 90%.

Regarding `Cl.N` [Ammonium (NH4^+), ammonium chloride], in data set [1], the “change in growth of the pine plants on charge increase from three to ten millimoles per litre” value is listed as “catastrophic reduction in growth”. Besides, the “growth of the pine plants at a charge of three millimoles per litre” value in data set [1] (nitrogen 3 mM) is reported as “sufficiently good growth”. The “state of the spruce plants at the end of the trial (toxicity limit)” value in data set [2] (nitrogen charge of ten millimoles per litre) is listed as “dead at the end of the trial”. Further, in data set [3], the “Retention %” value was 28.0% and the “amount of supplied chemical found in the liquid (water) phase” value is reported as “more than 70%”. For the same molecule, in data set [3] (listed as ammonium), the “Retention %” value came to 28%.

Regarding `NCC(=O)O` [Glycine, glycine], in data set [1], the “growth of the pine plants (mean dry weight), ranking of the nitrogen sources” value is on record as “these three preparations are followed by the nutrient mixture that includes glycine” and the “change in growth of the pine plants on charge increase from three to ten millimoles per litre” value is recorded as “slight decrease in growth or at least not an increased growth”. Moreover, in data set [3], the “Retention %” value is recorded as −1.9%. In data set [3] (listed as glycine), the “Retention %” value was “less than zero”.

For the origin of these results see patent publication US20090056397A1, “NITROGEN CONTAINING FERTILIZER FOR PLANT GROWTH” (SweTree Technologies AB, priority 2000, published 2009).
